According to patent publication US9546157B2, “Asymmetric piperidinyl-substituted ureas as medicines” (Helsinn Healthcare SA, priority 2014, dated 2017):

What was measured:
[1] = Metabolic Stability (M = Mouse); format: in vitro ADME
GHSR1a [2] = target: T1, GHSR1a (Homo sapiens, UniProt Q92847); experiment: Calcium FLIPR assay, GHSR-1a agonism; format: cell-based; set-up: Emax: unit not given here; conditions: HEK293/GHSR1a cells
T1 construct: expressed in transfected cells; host or cells: HEK293
Procedure, shortened: (§1)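 Cells stably carrying human GHSR1a were plated a day ahead, dye-loaded, then given test compound. Agonist activity was the calcium rise over 2 minutes after compound addition at t=20 sec; antagonist activity was the reduction of the response to 10 nM ghrelin added together with compound.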

GHSR1a [3] = target: T1, GHSR1a; experiment: Calcium FLIPR assay, GHSR-1a antagonism (reduction of ghrelin response); format: cell-based; conditions: HEK293/GHSR1a cells, ghrelin 10 nM
Procedure, shortened: as §1

[4] = Metabolic Stability (H = Human); format: in vitro ADME

T1 sequence (Q92847 whole entry): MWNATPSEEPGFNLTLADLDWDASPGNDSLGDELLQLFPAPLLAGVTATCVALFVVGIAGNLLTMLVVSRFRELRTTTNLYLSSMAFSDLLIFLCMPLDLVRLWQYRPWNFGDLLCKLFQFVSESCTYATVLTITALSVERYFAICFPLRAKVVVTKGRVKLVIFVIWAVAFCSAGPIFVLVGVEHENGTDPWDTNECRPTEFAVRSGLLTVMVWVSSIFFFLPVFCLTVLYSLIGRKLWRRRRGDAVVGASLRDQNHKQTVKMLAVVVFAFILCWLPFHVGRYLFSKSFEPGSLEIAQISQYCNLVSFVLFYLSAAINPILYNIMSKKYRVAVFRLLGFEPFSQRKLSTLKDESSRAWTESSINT

Row | SMILES | Metabolic Stability M [1] | EC50 (GHSR1a [2]) [nM] | IC50 (GHSR1a [3]) [nM] | Metabolic Stability H [4] | Emax (GHSR1a [2])
1 | C[C@H](NC(=O)N(C)C1CCN(C)C1)c1ccc(-c2cncc(F)n2)c(Cl)c1Cl (stereo partly drawn) [Compound H0872, 3-((S)-1-(2,3-dichloro-4-(6-fluoropyrazin-2-yl)phenyl)ethyl)-1-methyl-1-(1-methylpyrrolidin-3-yl)urea] | medium | > 30000 | 6 | High | –
2 | CN1CCC(N(C)C(=O)NC(c2ccc(-c3cncc(F)n3)c(Cl)c2Cl)C(F)(F)F)CC1 (centres unmarked) [Compound H0908, 3-(1-(2,3-dichloro-4-(6-fluoropyrazin-2-yl)phenyl)-2,2,2-trifluoroethyl)-1-methyl-1-(1-methylpiperidin-4-yl)urea] | High | > 30000 | 8 | Medium | –
3 | CN1CCC(N(C)C(=O)NC(CC2CC2)c2ccc(-c3cccnc3)c(Cl)c2Cl)CC1 (centres unmarked) [Compound H0720, 3-(2-cyclopropyl-1-(2,3-dichloro-4-(pyridin-3-yl)phenyl)ethyl)-1-methyl-1-(1-methylpiperidin-4-yl)urea] | High | > 30000 | 8 | Medium | –
4 | CC(NC(=O)N(C)C1CCN(C)CC1)c1ccc(-c2ccoc2)c(Cl)c1Cl (centres unmarked) [Compound H0507, 3-(1-(2,3-dichloro-4-(furan-3-yl)phenyl)ethyl)-1-methyl-1-(1-methylpiperidin-4-yl)urea] | High H High M | 12 | 8 | High H High M | –
5 | CC(NC(=O)N(C)C1CCN(C)CC1)c1ccc(-c2ccc(N(C)C)cc2)c(Cl)c1Cl (centres unmarked) [Compound H0518, 3-(1-(2,3-dichloro-4′-(dimethylamino)-[1,1′-biphenyl]-4-yl)ethyl)-1-methyl-1-(1-methylpiperidin-4-yl)urea] | – | > 30000 | 841 | – | –
6 | CC(NC(=O)N(C)C1CCN(C)CC1)c1ccc(-c2cccc(F)c2)c(Cl)c1Cl (centres unmarked) [Compound H0810, 3-(1-(2,3-dichloro-3′-fluoro-[1,1′-biphenyl]-4-yl)ethyl)-1-methyl-1-(1-methylpiperidin-4-yl)urea] | – | 22 | 20 | – | 2339
7 | CC(NC(=O)N(C)C1CCN(C)CC1)c1ccc(C#CCN2CCN(C)CC2)c(Cl)c1Cl (centres unmarked) [Compound H0812, 3-(1-(2,3-dichloro-4-(3-(4-methylpiperazin-1-yl)prop-1-yn-1-yl)phenyl)ethyl)-1-methyl-1-(1-methylpiperidin-4-yl)urea] | – | 1500 | 1200 | – | 871
8 | CC(NC(=O)N(O)C1CCN(C)CC1)c1ccc(-c2cncnc2)c(Cl)c1Cl (centres unmarked) [Compound H0624, 3-(1-(2,3-dichloro-4-(pyrimidin-5-yl)phenyl)ethyl)-1-hydroxy-1-(1-methylpiperidin-4-yl)urea] | – | > 30000 | 253 | – | –
9 | CC(C)C#Cc1ccc(C(C)NC(=O)N(C)C2CCN(C)CC2)c(Cl)c1Cl (centres unmarked) [Compound H0852, 3-(1-(2,3-dichloro-4-(3-methylbut-1-yn-1-yl)phenyl)ethyl)-1-methyl-1-(1-methylpiperidin-4-yl)urea] | – | 18 | 22 | – | 1683
10 | CC(NC(=O)N(C)C1CCN(C)CC1)c1ccc(-c2cnc(O)nc2)c(Cl)c1Cl (centres unmarked) [Compound H0797, 3-(1-(2,3-dichloro-4-(2-hydroxypyrimidin-5-yl)phenyl)ethyl)-1-methyl-1-(1-methylpiperidin-4-yl)urea] | – | 1800 | 594 | – | 2879
11 | CC(NC(=O)N(C)C1CCN(C)CC1)c1ccc(-c2cncc(C3CCCC3)c2)c(Cl)c1Cl (centres unmarked) [Compound H0718, 3-(1-(2,3-dichloro-4-(5-cyclopentylpyridin-3-yl)phenyl)ethyl)-1-methyl-1-(1-methylpiperidin-4-yl)urea] | – | > 30000 | 499 | – | –
12 | CC(NC(=O)N(C)C1CCN(C)CC1)c1ccc(-c2cncc(Br)c2)c(Cl)c1Cl (centres unmarked) [Compound H0695, 3-(1-(4-(5-bromopyridin-3-yl)-2,3-dichlorophenyl)ethyl)-1-methyl-1-(1-methylpiperidin-4-yl)urea] | – | 5 | 78 | – | –
13 | CON(C)C(=O)c1ccc(-c2ccc(C(C)NC(=O)N(C)C3CCN(C)CC3)c(Cl)c2Cl)s1 (centres unmarked) [Compound H0692, 5-(2,3-dichloro-4-(1-(3-methyl-3-(1-methylpiperidin-4-yl)ureido)ethyl)phenyl)-N-methoxy-N-methylthiophene-2-carboxamide] | – | > 1000 | 550 | – | –

The next lines start with the values.

Row | Metabolic Stability M [1] | EC50 (GHSR1a [2]) [nM] | IC50 (GHSR1a [3]) [nM] | Metabolic Stability H [4] | Emax (GHSR1a [2]) | SMILES
14 | Poor | > 30000 | 71 | Medium | – | CC(NC(=O)N(C)C1CCN(C)CC1)c1ccc(-c2cnc3[nH]ncc3c2)c(Cl)c1Cl (centres unmarked) [Compound H0623, 3-(1-(2,3-dichloro-4-(1H-pyrazolo[3,4-b]pyridin-5-yl)phenyl)ethyl)-1-methyl-1-(1-methylpiperidin-4-yl)urea]
15 | Medium H Medium M | 28 | 32 | Medium H Medium M | 3533 | CC(NC(=O)N(C)C1CCN(C)CC1)c1ccc(-c2cccs2)c2ccccc12 (centres unmarked) [Compound H0575, 1-methyl-1-(1-methylpiperidin-4-yl)-3-(1-(4-(thiophen-2-yl)naphthalen-1-yl)ethyl)urea]
16 | Medium H Medium M | 20 | 15 | Medium H Medium M | 2069 | CC(NC(=O)N(C)C1CCN(C)CC1)c1ccc(-c2cccs2)c(Cl)c1F (centres unmarked) [Compound H0582, 3-(1-(34-chloro-2-fluoro-4-(thiophen-2-yl)phenyl)ethyl)-1-methyl-1-(1-methylpiperidin-4-yl)urea]
17 | Poor H Poor M | > 30000 | 24 | Poor H Poor M | – | CC(NC(=O)N(C)C1CCN(C)CC1)c1ccc(-c2cncs2)c2ccccc12 (centres unmarked) [Compound H0597, 1-methyl-1-(1-methylpiperidin-4-yl)-3-(1-(4-(thiazol-5-yl)naphthalen-1-yl)ethyl)urea]
18 | High H High M | > 30000 | 1.6 | High H High M | – | C[C@H](NC(=O)N(C)[C@@H]1CCN(C)CC1(C)C)c1ccc(-c2cnccn2)c(Cl)c1Cl [Compound H0890, 3-((S)-1-(2,3-dichloro-4-(pyrazin-2-yl)phenyl)ethyl)-1-methyl-1-((R)-1,3,3-trimethylpiperidin-4-yl)urea]
19 | Medium | > 30000 | 107 | High | – | CC(NC(=O)N(C)C1CCN(C)CC1)c1ccc(-c2ccc(C(N)=O)cc2)c(Cl)c1Cl (centres unmarked) [Compound H0615, 2′,3′-dichloro-4′-(1-(3-methyl-3-(1-methylpiperidin-4-yl)ureido)ethyl)-[1,1′-biphenyl]-4-carboxamide]
20 | Medium H Medium M | 126 | 11 | Medium H Medium M | – | CC(NC(=O)N(C)C1CCN(C)CC1)c1ccc(-c2cccc(N)c2)c2ccccc12 (centres unmarked) [Compound H0591, 3-(1-(4-(3-aminophenyl)naphthalen-1-yl)ethyl)-1-methyl-1-(1-methylpiperidin-4-yl)urea]
21 | Medium | > 30000 | 15 | Low | – | CC(NC(=O)N(C)C1CCN(C)CC1)c1ccc(-c2cncc(-c3cncs3)c2)c(Cl)c1Cl (centres unmarked) [Compound H0716, 3-(1-(2,3-dichloro-4-(5-(thiazol-5-yl)pyridin-3-yl)phenyl)ethyl)-1-methyl-1-(1-methylpiperidin-4-yl)urea]
22 | – | > 30000 | 810 | – | – | CC(NC(=O)N(C)C1CCN(C)CC1)c1cnc(-c2cnccn2)c(Cl)c1Cl (centres unmarked) [Compound H0881, 3-(1-(4,5-dichloro-6-(pyrazin-2-yl)pyridin-3-yl)ethyl)-1-methyl-1-(1-methylpiperidin-4-yl)urea]
23 | – | > 5000 | 74 | – | – | CC(NC(=O)N(C)C1CCN(C)CC1)c1ccc(C#Cc2ccc(CO)s2)c(Cl)c1Cl (centres unmarked) [Compound H0775, 3-(1-(2,3-dichloro-4-((5-(hydroxymethyl)thiophen-2-yl)ethynyl)phenyl)ethyl)-1-methyl-1-(1-methylpiperidin-4-yl)urea]
24 | – | > 30000 | 176 | – | – | Cc1cncc(-c2ccc(C(C)NC(=O)N(C)C3CCN(C)CC3)c(Cl)c2Cl)n1 (centres unmarked) [Compound H0815, 3-(1-(2,3-dichloro-4-(6-methylpyrazin-2-yl)phenyl)ethyl)-1-methyl-1-(1-methylpiperidin-4-yl)urea]
25 | – | 19 | 125 | – | 1359 | CC(NC(=O)N(C)C1CCN(C)CC1)c1ccc(-c2cncc(C(F)(F)F)n2)c(Cl)c1Cl (centres unmarked) [Compound H0910, 3-(1-(2,3-dichloro-4-(6-(trifluoromethyl)pyrazin-2-yl)phenyl)ethyl)-1-methyl-1-(1-methylpiperidin-4-yl)urea]
26 | – | 21 | 8 | – | 4927 | CN1CCC(N(C)C(=O)NC(C#N)c2ccc(-c3cncc(C#N)c3)c(Cl)c2Cl)CC1 (centres unmarked) [Compound H0666, 3-(cyano(2,3-dichloro-4-(5-cyanopyridin-3-yl)phenyl)methyl)-1-methyl-1-(1-methylpiperidin-4-yl)urea]
27 | – | > 30000 | 1300 | – | – | CC(NC(=O)N(C)C1CCN(C)CC1)c1ccc(-c2cnc(F)nc2)c(Cl)c1Cl (centres unmarked) [Compound H0800, 3-(1-(2,3-dichloro-4-(2-fluoropyrimidin-5-yl)phenyl)ethyl)-1-methyl-1-(1-methylpiperidin-4-yl)urea]
